Like-named read-outs stand apart in the source and are kept apart here.
Molecular target: T1, human TrkA (Homo sapiens, UniProt P04629)
T1 construct: purchased Lifetechnologies PV3144
Assay: Human TrkA inhibition assay
Format: biochemical
Conditions: human TrkA phosphorylation inhibition, ATP 500 μmol/L
Outline: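 Human TrkA (1 nmol/L final) preincubated 15 min with compound, then FL-peptide 27 (1.5 μmol/L) and ATP (500 μmol/L) added; 120 min at 37 °C in HEPES/MgCl2/DTT buffer. Mobility-shift measurement of phosphorylated vs non-phosphorylated substrate; IC50 by logistic regression over 3-fold dilution series.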

T1 sequence (P04629 33-796): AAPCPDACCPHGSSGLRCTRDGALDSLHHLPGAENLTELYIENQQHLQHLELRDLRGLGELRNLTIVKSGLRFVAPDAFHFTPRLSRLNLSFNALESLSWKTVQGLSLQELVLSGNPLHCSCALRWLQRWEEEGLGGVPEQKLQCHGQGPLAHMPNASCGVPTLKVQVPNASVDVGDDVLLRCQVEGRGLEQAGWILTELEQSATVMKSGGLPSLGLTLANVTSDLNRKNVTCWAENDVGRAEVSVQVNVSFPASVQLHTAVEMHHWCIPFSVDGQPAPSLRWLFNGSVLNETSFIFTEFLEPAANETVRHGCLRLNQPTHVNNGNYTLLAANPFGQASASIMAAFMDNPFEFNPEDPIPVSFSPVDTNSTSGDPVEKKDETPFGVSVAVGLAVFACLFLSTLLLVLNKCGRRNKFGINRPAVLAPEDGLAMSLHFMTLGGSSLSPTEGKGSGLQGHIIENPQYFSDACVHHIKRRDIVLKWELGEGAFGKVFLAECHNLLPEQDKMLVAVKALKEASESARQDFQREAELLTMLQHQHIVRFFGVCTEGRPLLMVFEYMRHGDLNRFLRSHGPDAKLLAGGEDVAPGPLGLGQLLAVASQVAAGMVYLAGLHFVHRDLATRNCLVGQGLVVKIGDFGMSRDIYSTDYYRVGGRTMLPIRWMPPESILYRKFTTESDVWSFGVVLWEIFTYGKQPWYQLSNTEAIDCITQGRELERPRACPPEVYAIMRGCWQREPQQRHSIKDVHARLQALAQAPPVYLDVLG

SMILES | IC50 (read-out: IC50_nM) | IC50 (read-out: IC50 value)
COCC[C@@H]1C[C@@H](NC(=O)Nc2c(C)c(-c3ccc4c(cnn4C)c3)nn2-c2ccccc2)[C@H](c2ccc(F)c(F)c2)N1C [Compound I-9] | < 100 nM | –
Cc1c(-c2ccc3c(cnn3C)c2)nn(-c2ccccc2)c1NC(=O)N[C@@H]1C[C@@H](CCOC(F)(F)F)C[C@H]1c1ccc(F)c(F)c1 [Compound I-11] | < 100 nM | –
COCC[C@@H]1C[C@@H](NC(=O)Nc2c(C)c(-c3ccc4c(cnn4C)c3)nn2-c2ccccc2)[C@H](c2ccc(F)c(F)c2)C1 [Compound I-13] | < 100 nM | –
COCC[C@@H]1C[C@@H](NC(=O)Nc2c(C)c(-c3ccc(O)nc3)nn2-c2ccccc2)[C@H](c2ccc(F)c(F)c2)N1C [Compound I-14] | < 100 nM | –
CCN1CCC(NC(=O)c2ccc(-c3nn(-c4ccccc4)c(NC(=O)N[C@@H]4C[C@@H](CCOC)N[C@H]4c4ccc(F)c(F)c4)c3C)cc2)CC1 [Compound I-15] | < 100 nM | –
COCC[C@@H]1C[C@@H](NC(=O)Nc2c(C)c(-c3ccc4c(cnn4C)c3)nn2-c2ccccc2)[C@H](c2ccccc2)C1 [Compound I-21] | < 100 nM | –
COCC[C@@H]1C[C@@H](NC(=O)Nc2c(C)c(-c3ccc(OCc4ccccc4)nc3)nn2-c2ccccc2)[C@H](c2ccccc2)C1 [Compound I-22] | < 100 nM | –
COCC[C@@H]1C[C@@H](NC(=O)Nc2c(C)c(-c3ccc(=O)[nH]c3)nn2-c2ccccc2)[C@H](c2ccccc2)C1 [Compound I-23] | < 100 nM | –
CCN1CCC(NC(=O)c2ccc(-c3nn(-c4ccccc4)c(NC(=O)N[C@@H]4C[C@@H](CCOC)C[C@H]4c4ccccc4)c3C)cc2)CC1 [Compound I-24] | – | 0.81 nM
CCN1CCC(NC(=O)c2ccc(-c3nn(-c4ccccc4)c(NC(=O)N[C@@H]4C[C@@H](CCOC)N(C)[C@H]4c4ccc(F)c(F)c4)c3C)cc2)CC1 [Compound I-25] | < 100 nM | –
COCCN1C[C@@H](NC(=O)Nc2c(C)c(N3CCc4c(cnn4C)C3)nn2-c2ccccc2)[C@H](c2ccccc2)C1 [Compound I-58] | < 100 nM | –
COCCN1C[C@@H](NC(=O)Nc2c(C)c(N3CCc4nn(C)cc4C3)nn2-c2ccccc2)[C@H](c2ccccc2)C1 [Compound I-59] | < 100 nM | –
COCCN1C[C@@H](NC(=O)Nc2c(C)c(-c3ccnc(C(=O)N[C@H]4CC[C@H](O)CC4)c3)nn2-c2ccccc2)[C@H](c2ccccc2)C1 [Compound I-74] | < 100 nM | –
COCCN1C[C@@H](NC(=O)Nc2c(C)c(-c3ccnc(C(=O)NC[C@@H](C)O)c3)nn2-c2ccccc2)[C@H](c2ccccc2)C1 [Compound I-75] | < 100 nM | –
COCCN1C[C@@H](NC(=O)Nc2c(C)c(-c3cnc(OC)c(C(=O)N[C@@H]4CCCOC4)c3)nn2-c2ccccc2)[C@H](c2ccccc2)C1 [Compound I-78] | < 100 nM | –
COCCN1C[C@@H](NC(=O)Nc2c(C)c(-c3cnc(OC)c(C(=O)N[C@H]4CCOC4)c3)nn2-c2ccccc2)[C@H](c2ccccc2)C1 [Compound I-80] | < 100 nM | –
COCCN1C[C@@H](NC(=O)Nc2c(C)c(-c3cnc(OC)c(C(=O)NC[C@@H](C)O)c3)nn2-c2ccccc2)[C@H](c2ccccc2)C1 [Compound I-82] | < 100 nM | –
COCCN1C[C@@H](NC(=O)Nc2c(C)c(-c3cnc(OC)c(C(=O)N[C@@H]4CCOC4)c3)nn2-c2ccccc2)[C@H](c2ccccc2)C1 [Compound I-84] | < 100 nM | –
COCCN1C[C@@H](NC(=O)Nc2c(C)c(-c3ccnc(C(=O)N[C@H]4CC[C@@H](O)CC4)c3)nn2-c2ccccc2)[C@H](c2ccccc2)C1 [Compound I-85] | < 100 nM | –
COCCN1C[C@@H](NC(=O)Nc2c(C)c(-c3ccnc(C(=O)N[C@@H]4CCOC4)c3)nn2-c2ccccc2)[C@H](c2ccccc2)C1 [Compound I-86] | < 100 nM | –
COCCN1C[C@@H](NC(=O)Nc2c(C)c(-c3ccnc(C(=O)N[C@H]4CCOC4)c3)nn2-c2ccccc2)[C@H](c2ccccc2)C1 [Compound I-87] | < 100 nM | –

Further lines, results first:

IC50 (read-out: IC50_nM) | IC50 (read-out: IC50 value) | SMILES
< 100 nM | – | COCCN1C[C@@H](NC(=O)Nc2c(C)c(-c3ccnc(C(=O)NC[C@H](C)O)c3)nn2-c2ccccc2)[C@H](c2ccccc2)C1 [Compound I-88]
< 100 nM | – | COCC[C@@H]1C[C@@H](NC(=O)Nc2c(C)c(-c3cnc4c(cnn4C)c3)nn2-c2ccccc2)[C@H](c2ccnc(F)c2)N1C [Compound I-94]
– | 0.66 nM | COCC[C@@H]1C[C@@H](NC(=O)Nc2c(C)c(-c3cnc4c(cnn4C)c3)nn2-c2ccccc2)[C@H](c2ccccc2)C1 [Compound I-102]
< 100 nM | – | COCC[C@@H]1C[C@@H](NC(=O)Nc2c(C)c(-c3cc(C)c(=O)n(C)c3)nn2-c2ccccc2)[C@H](c2ccccc2)C1 [Compound I-103]
< 100 nM | – | COCC[C@@H]1C[C@@H](NC(=O)Nc2c(C)c(-c3cc(C(=O)OC)c(=O)n(C)c3)nn2-c2ccccc2)[C@H](c2ccccc2)C1 [Compound I-116]
< 100 nM | – | CNC(=O)c1cc(-c2nn(-c3ccccc3)c(NC(=O)N[C@@H]3C[C@@H](CCOC)C[C@H]3c3ccccc3)c2C)cn(C)c1=O [Compound I-117]
< 100 nM | – | COCC[C@@H]1C[C@@H](NC(=O)Nc2c(C)c(-c3cc(C(=O)NC4CCOCC4)c(=O)n(C)c3)nn2-c2ccccc2)[C@H](c2ccccc2)C1 [Compound I-118]
< 100 nM | – | COCC[C@@H]1C[C@@H](NC(=O)Nc2c(C)c(-c3cc(C(=O)NOCc4ccccc4)c(=O)n(C)c3)nn2-c2ccccc2)[C@H](c2ccccc2)C1 [Compound I-119]
< 100 nM | – | COCC[C@@H]1C[C@@H](NC(=O)Nc2c(C)c(-c3cc(C(=O)NO)c(=O)n(C)c3)nn2-c2ccccc2)[C@H](c2ccccc2)C1 [Compound I-120]
< 100 nM | – | CNC(=O)c1cc(-c2nn(-c3ccccc3)c(NC(=O)N[C@@H]3C[C@@H](CCOC)C[C@H]3c3ccccc3)c2C)cnc1OC [Compound I-144]
< 100 nM | – | CNC(=O)c1cc(-c2nn(-c3ccccc3)c(NC(=O)N[C@@H]3C[C@@H](CCOC)C[C@H]3c3ccnc(F)c3)c2C)cnc1OC [Compound I-145]
< 100 nM | – | CNS(=O)(=O)c1cc(-c2nn(-c3ccccc3)c(NC(=O)N[C@@H]3C[C@@H](CCOC)C[C@H]3c3ccccc3)c2C)cn(C)c1=O [Compound I-148]
< 100 nM | – | COCC[C@@H]1C[C@@H](NC(=O)Nc2c(C)c(-c3cc(C(=O)O)c(=O)n(C)c3)nn2-c2ccccc2)[C@H](c2ccccc2)C1 [Compound I-149]
– | 1.5 nM | COCCN1C[C@@H](NC(=O)Nc2c(C)c(-c3ccc(N=S(C)(C)=O)nc3)nn2-c2ccccc2)[C@H](c2ccc(F)c(F)c2)C1 [Compound I-151]
< 100 nM | – | COCC[C@@H]1C[C@@H](NC(=O)Nc2c(C)c(-c3ccc(N=S(C)(C)=O)nc3)nn2-c2ccccc2)[C@H](c2ccccc2)C1 [Compound I-152]
< 100 nM | – | COCC[C@@H]1C[C@@H](NC(=O)Nc2c(C)c(-c3cc(C(=O)NOC)c(=O)n(C)c3)nn2-c2ccccc2)[C@H](c2ccccc2)C1 [Compound I-153]
< 100 nM | – | COCC[C@@H]1C[C@@H](NC(=O)Nc2c(C)c(-c3cc(C#N)c(=O)n(C)c3)nn2-c2ccccc2)[C@H](c2ccccc2)C1 [Compound I-154]
< 100 nM | – | COCCN1C[C@@H](NC(=O)Nc2c(C)c(-c3ccnc(C(=O)NO)c3)nn2-c2ccccc2)[C@H](c2ccc(F)c(F)c2)C1 [Compound I-155]
< 100 nM | – | COCCN1C[C@@H](NC(=O)Nc2c(C)c(-c3ccnc(C(=O)NOC)c3)nn2-c2ccccc2)[C@H](c2ccc(F)c(F)c2)C1 [Compound I-156]

— US10533006B2, “Nitrogen-containing heterocycle and carbocycle derivatives having TrkA inhibitory activity” (Shionogi & Co., Ltd., priority 2016, dated 2020)
